Experimental data as given in patent publication US11920185B2, “Method of inactivating microbes by citraconic anhydride” (Roche Molecular Systems, Inc., priority 2015, dated 2024).
Where two headings read alike, the source gives them in different places.

Test system: lambda bacteriophage GT11
Experiment: Titering (plaque assay) of citraconic anhydride-treated lambda bacteriophage on E. coli Y1088
Assay type: cell-based
Settings: for Titer, Tricine, After 1 month / Titer, Tricine, Day 1: stored in 10 mM Tricine pH 8.3; for Titer, Tris, After 1 month / Titer, Tris, Day 1: stored in 10 mM Tris pH8.3; for Titer pfu/ml (at 1 month): stored one month at 4° C.
Protocol: In order to analyze lambda bacteriophage GT11 inactivation using citraconic anhydride (also referred to as “Cit” or “cit”), a titration was performed.
10 μl of working solution of citraconic anhydride in DMF was added to 1 ml lambda bacteriophage in SM buffer, which is 0.1 M NaCl, 10 mM MgSO^4, 50 mM Tris pH 7.5, 0.01% gelatin (Sambrook and Russell, supra, page A2.8) where the phage was provided at 1×10^7 pfu/ml). The reaction was performed at room temperature for 1 hour and then stored at 4° C. for 7 days to one month. The phage solutions were titered to determine the effect of the citraconic anhydride modification on the phage.
Titering of bacteriophage was performed as follows: The host bacterium, E. coli Y1088, was inoculated into 15 mls luria broth supplemented with 10 mM MgSO4 and 0.2% Maltose (w/v) using a 0.1% inoculum and incubated at 37° C. to an OD<=1. The cells were concentrated by centrifugation (10 minutes at 500×g) and the cell pellet resuspended in ½ volume of sterile 10 mM MgSO4. The E. coli cells were diluted to 0.5 OD600 with 10 mM MgSO4. The bacteriophage was serially diluted in SM Buffer as follows. Pipet 10 μL phage into the tube labeled 10^−2. Resuspend by vortexing. Using a new tip, pipet 10 μL of the 10^−2 dilution into the tube labeled 10^−4. Resuspend by vortexing. Repeat the 100-fold serial dilutions to the 10^−8 tube. From the 10^−8 tube, perform 10-fold dilutions to the 10^−9 and 10^−10 tubes. Add 100 μL of phage from the 10^−8 s to the 10^−9 tube, vortex, and add 100 μL from the 10^−9 tube to the 10^−10 tube. Vortex the 10^−10 tube. Add 300 μL E. coli to each of 5 sterile 17×100 mm Falcon polypropylene round bottom tubes (#352057) for each sample being titered. Add 100 μL of the diluted […] to the tube (dilutions 10^−4, 10^−6, 10^−8, 10^−9 and 10^−10). Let sit 10 minutes at room temperature. Incubate 10 minutes at 37° C. Meanwhile, label the NZCYM plates with the phage sample and the dilution. To the first tube still in the 37° C. heat block, add 3 mL top agar (from the bottle of top agar in the 50° C. bath), vortex the tube, and quickly pour onto the NZCYM plate. Swirl the plate quickly so the top agar covers the entire plate. Allow the top agar to solidify on the bench. Repeat with each tube. Incubate the plates at 37° C. overnight in an inverted position. The next day, count the plaques and calculate the titer by using the dilution which provides the most countable number of plaques.
This experiment tested the stability of citraconic anhydride (Cit)-treated lambda bacteriophage. Phage was inactivated using different Cit concentrations and stored for one month at 4° C.
Bacteriophage targets treated with different concentrations of Cit were stored in different buffers and then evaluated for their inactivation status. Targets were stored in either 10 mM Tris pH8.3 or 10 mM Tricine pH 8.3.

CC1=CC(=O)OC1=O [citraconic anhydride]
Day 1 - Titer: 6.7 × 10^6 pfu/ml
Day 8 - Titer (1.1 μM final concentration, stored at 4° C.): 3.9 × 10^7 pfu/ml
Day 1 - Titer (11 μM final concentration): 9.0 × 10^6 pfu/ml
Day 8 - Titer (11 μM final concentration, stored at 4° C.): 2.9 × 10^7 pfu/ml
Day 1 - Titer (0.11 mM final concentration): 5.5 × 10^6 pfu/ml
Day 8 - Titer (0.11 mM final concentration, stored at 4° C.): 3.6 × 10^7 pfu/ml
Day 1 - Titer (1.1 mM final concentration): 1.8 × 10^6 pfu/ml
Day 8 - Titer (1.1 mM final concentration, stored at 4° C.): 2.0 × 10^7 pfu/ml
Titer, Tricine, After 1 month (5.5 mM Cit): 3 × 10^3 pfu/ml
Titer, Tricine, Day 1 (5.5 mM Cit): 1 × 10^3 pfu/ml
Titer, Tris, After 1 month (5.5 mM Cit): 0 pfu/ml
Titer, Tris, Day 1 (5.5 mM Cit): 1.5 × 10^3 pfu/ml
Titer pfu/ml (Day 1) (5.5 mM final Cit concentration): 1.5 × 10^6 pfu/ml
Titer pfu/ml (at 1 month) (5.5 mM final Cit concentration): 1.5 × 10^6 pfu/ml
Titer, Tricine, After 1 month (11 mM Cit): 0 pfu/ml
Titer, Tricine, Day 1 (11 mM Cit): 0 pfu/ml
Titer, Tris, After 1 month (11 mM Cit): 0 pfu/ml
Titer, Tris, Day 1 (11 mM Cit): 0 pfu/ml
Titer pfu/ml (Day 1) (11 mM final Cit concentration): 0 pfu/ml
Titer pfu/ml (at 1 month) (11 mM final Cit concentration): 0 pfu/ml
Day 1 - Titer (11 mM final concentration in reaction with phage, 1 h room temperature, phage 1×10^7 pfu/ml in SM buffer): 0 pfu/ml
Day 8 - Titer (11 mM final concentration, stored at 4° C.): 0 pfu/ml
Phage inactivation (11 mM, persisted after 7 days): complete inactivation
Titer, Tricine, After 1 month (22 mM Cit): 0 pfu/ml
Titer, Tricine, Day 1 (22 mM Cit): 0 pfu/ml
Titer, Tris, After 1 month (22 mM Cit): 0 pfu/ml
Titer, Tris, Day 1 (22 mM Cit): 0 pfu/ml
Titer pfu/ml (Day 1) (22 mM final Cit concentration): 0 pfu/ml
Titer pfu/ml (at 1 month) (22 mM final Cit concentration): 0 pfu/ml
Persistence of phage inactivation after storage (Cit-treatment at >=11 mM, storage in 10 mM Tris pH8.3 or 10 mM Tricine pH 8.3): provides inactivation for 1 month
Persistence of phage inactivation (greater than or equal to 11 mM, stored at 4° C.): remain inactivated for 1 month
